Our source for the GI50 and TGI values is PubChem BioAssay (NCI).

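How tested: cells in 96-well plates exposed to compound for 48 hours at five concentrations. GI50 = concentration required for 50% inhibition of growth. At the TGI there is no net growth.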 Bounds are passed on as bounds.

This test has as its system MDA-MB-468 breast. Nature of the test: NCI tumour cell line growth inhibition, 48 h.

On to `Cc1cc(C(=O)Nc2ccc3cc(CN4CCOCC4)ccc3n2)c(C)n1-c1ccccc1`, for which the GI50 was 171 nM and the TGI amounted to 7110 nM.
Taken in the same sequence, the figures for `COCC[C@H]1CCC/C=C/[C@@H]2C[C@H](O)C[C@H]2[C@H](O)/C=C/C(=O)O1` were 24.5 nM and 71.4 nM.
Regarding `COc1ccc(-c2[nH]c3ccc(OC)cc3c2/C=C(\C#N)S(=O)(=O)c2ccccc2)cc1`, the GI50 is 1330 nM and the TGI stood at 44000 nM.
For the compound `CC1=CC(=O)C=CC1=O`, the GI50 is 1570 nM and the TGI amounted to 3210 nM.
Regarding `CCNCCNc1cc(-c2ccc(C(F)(F)F)cc2)c(C#N)c2nc3ccccc3n12`, the GI50 was 688 nM and the TGI is 2140 nM.
The corresponding values for `CCOC(=O)C1CCN(S(=O)(=O)/N=C2/NC(=O)NC2=C(Cl)Cl)CC1` are 387 nM and 2080 nM.
Consider `CC1(C)C(=O)/C(=C\c2cccnc2)C[C@]2(C)[C@H]3CC[C@@H]4[C@H]5[C@H](C(=O)/C=C/c6cccnc6)CC[C@]5(C(=O)O)CC[C@@]4(C)[C@]3(C)CC[C@@H]12`, for which the GI50 was 2140 nM and the TGI worked out at 5700 nM.
As to `O=C1/C(=C(/c2ccccc2)N2CCOCC2)Cc2ccccc21`, the GI50 is 501 nM and the TGI turned out to be 1900 nM.
As for `Nc1nc(Nc2cccnc2)sc1C(=O)c1ccccc1F`, the GI50 is 1370 nM and the TGI was 4040 nM.
Taken in the same sequence, the figures for `COc1ccc(-c2nc3ccccn3c2/C=C/C(=O)c2cc(OC)c(OC)c(OC)c2)cc1OC` were 2280 nM and 5710 nM.
The corresponding values for `COc1cc(OC)c(C(=O)/C=C/c2cccc(C(F)(F)F)c2)c(OC)c1` are 755 nM and 2010 nM.
Consider `CN1CCN(Cc2ccc(NC(=O)c3cncc(C#Cc4cnn5cccnc45)c3)cc2C(F)(F)F)CC1`, for which the GI50 was 8350 nM and the TGI came out at 22800 nM.
On to `COc1cc2ncnc(-n3ncc4cc(NC(=O)Nc5ccccc5)ccc43)c2cc1OC`, for which the GI50 is 1180 nM and the TGI came to 3350 nM.
`Cc1cc(C)c(NC(=O)c2sc3nc4c(cc3c2N)C(=O)CCC4)c(C)c1`: the GI50 is 651 nM and the TGI turned out to be 4390 nM.
In the case of `CN1CCN(CCCNc2nc3ccc(Oc4ccc(NC(=O)Nc5cc(C(F)(F)F)ccc5F)cc4)cc3[nH]2)CC1`, the GI50 was 3330 nM and the TGI was found to be 6570 nM.
`NS(=O)(=O)c1ccc(-c2ccc3c(NC(=O)C4CC4)n[nH]c3c2)cc1`: the GI50 is more than 21600 nM and the TGI was more than 25000 nM.
Taken in the same sequence, the figures for `CC/C=C\C[C@H](O)C/C=C1/C(=O)C=C[C@@H]1C/C=C\CCCC(=O)OC` were 1680 nM and 3770 nM.
Taken in the same sequence, the figures for `O=S(=O)(c1ccc(NC(=S)NC23CC4CC(CC(C4)C2)C3)cc1)N1CCCCC1` were 2270 nM and 6840 nM.
The corresponding values for `COc1ccc(C(=O)c2cc(OC)c(OC)c(OC)c2)cc1/C=C/C(=O)c1ccc(F)cc1` are 4630 nM and 27100 nM.
Take `COc1ccc(/C=C/c2c(C(=O)/C=C/c3ccccc3)c(C)nc3ccccc23)cc1`: the GI50 is 1780 nM and the TGI stood at 3480 nM.
The corresponding values for `C=C(C)[C@@H]1CC[C@]2(CO)CC[C@]3(C)[C@H](CC[C@@H]4[C@@]5(C)C=C(C#N)C(=O)C(C)(C)[C@@H]5CC[C@]43C)[C@@H]12` are 1300 nM and 3850 nM.
Regarding `Cc1ccc(NC(=O)c2cccc(C(C)(C)C#N)c2)cc1Nc1ccc2ncn(C)c(=O)c2c1`, the GI50 is 15800 nM and the TGI is more than 100000 nM.
For the compound `C/C(=N\Nc1ccc(Cl)cn1)c1ccc2ccccc2n1`, the GI50 was 2880 nM and the TGI is more than 100000 nM.
The corresponding values for `COc1ccccc1CNCCCN1C(=O)c2ccc3c4c(ccc(c24)C1=O)C(=O)N(CCCNCCNCCCN)C3=O` are 456 nM and 2220 nM.
Taken in the same sequence, the figures for `COc1c(C(=O)/C=C/c2ccccc2)c(O)cc2occc12` were 6770 nM and 21400 nM.
The corresponding values for `NC(=O)c1cc(Cl)ccc1NC(=O)/C=C/c1ccccc1` are 1100 nM and 11500 nM.
